Assay results taken from patent US12263156B2, “Use of small molecule inhibitors of the BfrB:Bfd interaction in biofilms” (priority 2020, dated 2025).

Tests used:
[1] = tested on: EYFP-expressing P. aeruginosa PAO1 pellicle biofilms; assay: Determination of viable cells (CFU/mL) in pellicle biofilms; conditions: for % survival relative to cells in the pre-treated biofilm / viable cell count as % of the cells in the untreated pellicle / % survival, combination treatment: 24 h; for viable cell count as % of the cells in the untreated pellicle: KM-5-25 40 μM, KM-5-66 20 μM; for relative compound activity (rank order): pellicles treated 24 h with 50 μM of each analog
Method: Pellicle biofilms of EYFP-expressing P. aeruginosa PAO1 or clinical isolates were grown in PI media supplemented with 20 μM Fe. Starter cultures were diluted to OD600=0.001 in 4 mL media, placed in 35×10 mm petri dishes and incubated statically at 30° C. for 48 hours. The pellicles were transferred onto circular (1.5 cm diameter) glass coverslips by gently allowing the surface of a coverslip to contact a pellicle. The pellicle-adhered coverslip was washed in PBS and then deposited on top of 1.5 mL of AB challenge media contained in a well of a 12-well microplate, with the pellicle exposed to the media. […] The coverslip-adhered pellicles were exposed to challenge media at 30° C. for 24 hours, changing the challenge media every 12 hours by transferring the pellicle-adhered coverslip to a new plate containing pre-warmed challenge media.
Pellicle biofilms were grown as described above. Planktonic and loosely attached cells were washed (3 times) by immersing the coverslip-adhered pellicles (biofilm facing up) into a well of a 12-well plate containing 3 mL of PBS, and incubating (5 min) with gentle rocking. To remove the pellicle from the coverslip, break the extracellular matrix and release cells from the biofilm, the coverslip-adhered pellicle was placed in a 50 mL conical tube containing a 2 mL suspension of zirconia beads (0.1 mm diameter, BioSpec Products), 10 mL PBS, 0.2 μg/mL alginate lyase and 0.2 μg/mL DNAse. The resultant mixture was incubated at room temperature for 3 min, followed by vigorous vortexing for 4 min. After sedimentation of the zirconia beads, a 100 μL aliquot was used for serial dilution and plating on PIA plates for subsequent enumeration of viable cells (CFU/mL).
To assess the efficacy of antibiotics and compounds with an approach complementary to imaging with CLSM, dispersing biofilm cells for subsequent enumeration of viable cells (CFU/mL) was resorted to. […] The biofilms were then harvested, and the cells dispersed into sterile PBS by vortexing in the presence of zirconia beads, prior to plating the cell suspensions for subsequent enumeration of CFU/mL. […] A characteristic of cells in the VBNC state is their inability to develop into colonies on routine culture media, even though the cells remain viable for long periods of time.^58-59 Evidence that bacterial cells can enter the VBNC has been obtained by several distinct methods,^59 one of which is the utilization of bacteria engineered to constitutively express bioluminescent proteins, and using the bioluminescence as a reporter of metabolic activity.

[2] = tested on: iron stored in BfrB in P. aeruginosa PAO1 pellicle cells; assay: Imaging of iron stored in BfrB in biofilm-embedded cells (native PAGE, Ferene S, densitometry); assay type: cell-based, Pseudomonas aeruginosa; conditions: 24 h; KM-5-25 40 μM, KM-5-66 20 μM
Excerpt: Recombinant BfrB (BfrBrec) was used as a standard for the electrophoretic mobility of BfrB. The lane corresponding to untreated control was loaded with 0.5× the volume of the lanes loaded with lysates from treated pellicles to account for the ˜2-fold larger number of viable cells in the untreated pellicles. Lanes loaded with treated pellicle lysates show greater accumulation of iron in BfrB relative to untreated cells. […] (A), (C) and (D) show the average of results from 3 biological replicates, p<0.001 is denoted by *** relative to untreated.
Pellicle biofilms were grown for 48 hours as described above. The pellicles were transferred onto square (2 cm×2 cm) glass coverslips by gently contacting the pellicle with the coverslip. […] Levels of total intracellular iron were determined as reported previously:^23, 86 the cell pellets were treated with 500 μL of freshly prepared digestion reagent (0.6 N HCl, 2.25% (w/v) KMnO4 in water), thoroughly mixed by vortexing, and then incubated at 65° C. for 3.5 hours. […] The iron concentration was measured from the absorbance of the Fe^2+-Ferene S complex (ε593=34.5 mM^−1 cm^−1),^87 normalized by the viable cell counts and reported as Fe atoms per cell. […]

[3] = 0.6× the IC50 (KM-5-25 40 μM; KM-5-66 30 μM)
[4] = 1.2× the IC50 (KM-5-25 80 μM; KM-5-66 50 μM)
[5] = analog at 1.2× the IC50 combined with colistin at 25× the MIC
[6] = analog at 1.2× the IC50 combined with colistin at 25× the MIC (20 μM)
[7] = analog at 1.2× the IC50 combined with colistin at 50× the MIC
[8] = analog at 1.2× the IC50 combined with colistin at 50× the MIC (40 μM)
[9] = analog at 1.2× the IC50 combined with tobramycin at 25× the MIC
[10] = analog at 1.2× the IC50 combined with tobramycin at 50× the MIC

## O=C1NC(=O)c2c(NCc3cc(Cl)ccc3O)cccc21 [KM-5-25]
[1]; [3]
  % survival relative to cells in the pre-treated biofilm: ~38%
[1]; [4]
  % survival relative to cells in the pre-treated biofilm: ~25%
[1]
  viable cell count as % of the cells in the untreated pellicle: 42%
  relative compound activity (rank order): KM-5-66>KM-5-25>16>11
[1]; [5]
  log reduction of viable cells relative to colistin alone: ~1 log
[1]; [6]
  % survival, combination treatment: ~1%
[1]; [7]
  log reduction of viable cells relative to colistin alone: ~0.7 log
[1]; [8]
  % survival, combination treatment: ~0.5%
[1]; [9]
  log reduction of viable cells relative to tobramycin alone: approximately 2.5 log
  % survival, combination treatment: ~0.5%
[1]; [10]
  log reduction of viable cells relative to tobramycin alone: ~4.7 log
  % survival, combination treatment: ~0.003%
[2]
  iron in BfrB relative to untreated pellicles (Ferene S band peak areas): ~3 fold

## O=C1NC(=O)c2c(NCCCc3cc(O)cc(Cl)c3)cccc21 [KM-5-66]
[1]; 0.3× the IC50 (KM-5-66 15 μM)
  % survival relative to cells in the pre-treated biofilm: approximately 57%
[1]; [3]
  % survival relative to cells in the pre-treated biofilm: ~21%
[1]; [4]
  % survival relative to cells in the pre-treated biofilm: ~15%
[1]
  viable cell count as % of the cells in the untreated pellicle: 37%
  relative compound activity (rank order): KM-5-66>KM-5-25>16>11
[1]; [5]
  log reduction of viable cells relative to colistin alone: approximately 1.7 log
[1]; [6]
  % survival, combination treatment: ~0.3%
[1]; [7]
  log reduction of viable cells relative to colistin alone: ~1.9 log
[1]; [8]
  % survival, combination treatment: ~0.02%
[1]; [9]
  log reduction of viable cells relative to tobramycin alone: approximately 1.5 log
  % survival, combination treatment: 5%
[1]; [10]
  log reduction of viable cells relative to tobramycin alone: ~2 log
  % survival, combination treatment: 1%
[2]
  iron in BfrB relative to untreated pellicles (Ferene S band peak areas): ~3 fold
